Assays:
neutrophils = experiment: Ratio of number of neutrophils to total number of cells in BAL fluid (Diff-Qick staining); format: in vivo, mouse
Description: (§1) BALB/c male mice (7-week-old, 20 g to 25 g, Orient Bio) were divided into groups of 6 mice, and as assigned to 6 mice in each group, and Alum was diluted in components of air pollutants, i.e., 10 mg/ml of coal combustible materials, 10 mg/ml of fly ash, and 5 mg/ml of diesel exhaust particle (DEP) to have a final concentration of 1% so that a final concentration of each component was 1.5 mg/ml for coal combustible material/fly ash and 5 mg/ml for DEP in a mixture. Then, to all groups except for a normal group, the mixture was directly injected into the airway and nose of the experimental animals by 50 pl each on the 4th, 7th and 10th says of the experiment.
(§2) For a positive control group treated with dexamethasone (Sigma D2915), administed at 3 mg/kg BW of the mouse model, the Lactobacillus plantarum KC3 strain (KC3) was diluted at a concentration of 1×10^9CFU/cell (about 2 mg/kg BW), the Leonurus japonicus extract was diluted in distilled water at a dose of 100 mg/kg of BW, and then orally administered at a dose of 300 pl every day (for 11 days). […]

TNF-α = experiment: Expression level of inflammation factor in BAL fluid (ELISA); format: in vivo, mouse
Description: as §1
(§3) For a positive control group treated with dexamethasone (Sigma D2915), administed at 3 mg/kg BW of the mouse model, the Lactobacillus plantarum KC3 strain (KC3) was diluted at a concentration of 1×10^9CFU/cell (about 2 mg/kg BW), the Leonurus japonicus extract was diluted in distilled water at a dose of 100 mg/kg of BW, and then orally administered at a dose of 300 pl every day (for 11 days). For a mixed group including the KC3 strain and the Leonurus japonicus extract, the solution was mixed and diluted at a ratio of 1:1 by the dry weight as in Examples above, and then orally administered at a dose of 300 pl every day (for 11 days) (the cell amount in the KC3 included in the mixture was 0.5×10^9 CFU/cell, and the dose of the Leonurus japonicus extract was set at 50 mg/kg BW). The oral administration was performed at a dose of 300 μl per mouse, and an autopsy was performed on the 12th day after the start of the experiment to recover the BAL solution.
(§4) An experiment was carried out to confirm whether the expression level of inflammation factors in the BAL fluid can be lowered, when treated with the Lactobacillus plantarum KC3 strain, the Leonurus japonicus extract, or the mixture thereof.
(§5) The experiment was carried out in the same manner as in Experimental Example 1-3, except that the number of cells in BAL fluid was measured. Instead of measuring the number of cells, ELISA was performed to measure the expression level of respiratory inflammation factors, such as IL-17A, TNF-α, and CXCL-1, expressed in BAL fluid. In detail, IL-17A antibodies (M1700, R&D Systems, Minneapolis, USA), TNF-α antibodies (MTA00B, R&D Systems, Minneapolis, USA), and CXCL-1 antibodies (MKCOOB, R&D Systems, Minneapolis, USA) were diluted with a buffer solution, coated microwells, and then cultured at 4° C. for 16 hours. Each well was washed with a buffer solution three times, and 10-fold diluted serum was dispensed at 100 μl per well. After being left at room temperature for 1 hour, the wells were washed twice. Then, 100 μl of Avidin-HRP-conjugated antibodies (DY007, R&D Systems, Minneapolis, USA) was treated thereon, and the wells were left again at room temperature for 1 hour, followed by washing again.
(§6) Tetramethylbenzidine (TMB) base solution (DY007, R&D Systems, Minneapolis, USA) was dispensed at 100 μl per well, and the well plate was left in the dark for 30 minutes. After 50 μl of a stopping solution (DY007, R&D Systems, Minneapolis, USA) was treated thereon, absorbance of the cells was measured at 450 nm.

CXCL-1 = experiment: as above; format: in vivo, mouse
Description: as §1, §3, §4, §5, §6

IL-17A = experiment: as above; format: in vivo, mouse
Description: as §1, §3, §4, §5, §6

[1] = tested on: total number of cells in BAL fluid; experiment: Total number of cells in BAL fluid, mouse model having respiratory damage caused by air pollutants; format: in vivo
Description: as §1, §2

[2] = tested on: symmetric dimethylarginine (SDMA); experiment: Measurement of SDMA as COPD biomarker in blood (ELISA); format: in vivo, mouse
Description: as §1, §2
After being left at room temperature for 1 hour, the wells were washed twice. […] After 50 μl of a stopping solution (DY007, R&D Systems, Minneapolis, USA) was treated thereon, absorbance of the cells was measured at 450 nm. […]

[3] = BALB/c mice, air pollutant-induced, oral daily 11 days, BAL day 12, dexamethasone 3 mg/kg, KC3 1×10^9 CFU, Leo 100 mg/kg, mixture 0.5×10^9 CFU + 50 mg/kg
[4] = BALB/c mice, air pollutant-induced, oral daily 11 days, dexamethasone 3 mg/kg, KC3 1×10^9 CFU, Leo 100 mg/kg, mixture 0.5×10^9 CFU + 50 mg/kg

With `C[C@@H]1C[C@H]2[C@@H]3CCC4=CC(=O)C=C[C@]4(C)[C@@]3(F)[C@@H](O)C[C@]2(C)[C@@]1(O)C(=O)CO` [Positive control group, dexamethasone] the “Ratio of number of neutrophils to total number of BAL cells (400X)” value (neutrophils; [3]) was 35.5 ± 6.1, the “Inhibition rate (based on induced group), neutrophil ratio” value (neutrophils; same dosing, based on induced group) was 50% and the “TNF-α Concentration” value (TNF-α; [4]) was 64.5 ± 7.7 pg/mL. The “TNF-α inhibition rate (%) based on induced group” value (TNF-α; same dosing) was “(46%)”, the “CXCL-1 Concentration” value (CXCL-1; [4]) was 122 ± 12.4 pg/mL and the “CXCL-1 inhibition rate (%) based on induced group” value (CXCL-1; same dosing) was “(39%)”. The “IL-17A Concentration” value (IL-17A; [4]) was 19.7 ± 6.3 pg/mL, the “IL-17A inhibition rate (%) based on induced group” value (IL-17A; same dosing) was “(41%)” and the “Total number of BAL cells (×10^4 cells/ml)” value [1, 3] was 71.2 ± 8.3 ×10^4 cells/ml. The “Inhibition rate (based on induced group), total BAL cells” value ([1]; same dosing as total BAL cells, based on induced group) was 54%, the “SDMA level (μg/mL) in serum” value [2, 4] was 10.1 ± 1.9 µg/mL and the “Inhibition rate (based on induced group), SDMA” value ([2]; serum, same dosing) was 41%.
